From patent US10669283B2, “Compound and pharmacologically acceptable salt thereof” (MEIJI SEIKA PHARMA CO., LTD., priority 2016, dated 2020)

System: PDE4
Assay: PDE4 inhibition, scintillation proximity assay (SPA);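 for PDE4 Inhibitory Activity (concentration for the inhibition rate of 50%): A below 100 nM B 100 to below 1000 nM C 1000 nM or more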
Format: biochemical
Conditions: scintillation proximity assay (SPA); evaluated as classes A, B, C; read-out: PDE4 Inhibitory Activity (concentration for the inhibition rate of 50%)
In short: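 Compound pre-diluted 1:10 in 50 mM Tris-HCl pH 7.4, 8.3 mM MgCl2, 1.7 mM EGTA, 3 mg/mL BSA, then incubated with PDE4 and [2,8-3H]-cAMP for 120 min at room temperature. Product captured on ZnSO4-containing YSi-SPA beads for 15 min; radioactivity counted against no-enzyme blank and DMSO control.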

Compound | IC50
OC1(c2cc(-c3nccs3)c3oc(N4CC5CC(C4)N5)nc3c2OC(F)(F)F)CC1 [Example 269, 1-(2-(3,6-Diazabicyclo[3.1.1]heptan-3-yl)-7-(thiazol-2-yl)-4-(trifluoromethoxy)benzo[d]oxazol-5-yl)cyclopropan-1-ol] | < 100 nM
NS(=O)(=O)c1cc(-c2nccs2)c2oc(N3CC4CCCC(C3)N4)nc2c1 [Example 59, 2-(3,9-Diazabicyclo[3.3.1]nonan-3-yl)-7-(thiazol-2-yl) benzo[d]oxazole-5-sulfonamide] | < 100 nM
FC(F)(F)Oc1c(Cl)cc(-c2nccs2)c2oc(N3CC4COCC(C3)N4)nc12 [Example 4, 7-(5-Chloro-7-(thiazol-2-yl)-4-(trifluoromethoxy)benzo [d]oxazol-2-yl)-3-oxa-7,9-diazabicyclo[3.3.1]nonane] | < 100 nM
CS(=O)(=O)c1cc(-c2nccs2)c2oc(N3CC4CCC(C3)N4)nc2c1 [Example 45, 2-(3,8-Diazabicyclo[3.2.1]octan-3-yl)-5-(methylsulfonyl)-7-(thiazol-2-yl)benzo[d]oxazole] | < 100 nM
CC(O)(c1ccc(-c2nccs2)c2oc(N3CC4CC(C3)N4)nc12)C(F)(F)F (centres unmarked) [Example 270, 2-(2-(3,6-Diazabicyclo[3.1.1]heptan-3-yl)-7-(thiazol-2-yl)benzo[d]oxazol-4-yl)-1,1,1-trifluoropropan-2-ol] | < 100 nM
COC(c1cc(-c2nccs2)c2oc(N3CC4CC(C3)N4)nc2c1)C(F)(F)F (centres unmarked) [Example 144, 2-(3,6-Diazabicyclo[3.1.1]heptan-3-yl)-7-(thiazol-2-yl)-5-(2,2,2-trifluoro-1-methoxyethyl)benzo[d]oxazole] | < 100 nM
Cc1ccc(-c2nccs2)c2oc(N3CC4CC(C3)N4)nc12 [Example 26, 2-(3,6-Diazabicyclo[3.1.1]heptan-3-yl)-4-methyl-7-(thiazol-2-yl)benzo[d]oxazole] | < 100 nM
CC(C)(O)COc1ccc(-c2nccs2)c2oc(N3CC4CCC(C3)N4)nc12 [Example 264, 1-((2-(3,8-Diazabicyclo[3.2.1]octan-3-yl)-7-(thiazol-2-yl)benzo[d]oxazol-4-yl)oxy)-2-methylpropan-2-ol] | < 100 nM
COC(c1cc(-c2nccs2)c2oc(N3CC4CCC(C3)N4)nc2c1OC(F)(F)F)C(F)F (centres unmarked) [Example 209, 2-(3,8-Diazabicyclo[3.2.1]octan-3-yl)-5-(2,2-difluoro-1-methoxyethyl)-7-(thiazol-2-yl)-4-(trifluoromethoxy)benzo[d]oxazole] | < 100 nM
CC(O)(c1cc(-c2nccs2)c2oc(N3CC4CCC(C3)N4)nc2c1)C(F)(F)F (centres unmarked) [Example 159, 2-(2-(3,8-Diazabicyclo[3.2.1]octan-3-yl)-7-(thiazol-2-yl)benzo[d]oxazol-5-yl)-1,1,1-trifluoropropan-2-ol] | < 100 nM
COC(C)(c1cc(-c2nccs2)c2oc(N3CC4CC(C3)N4)nc2c1)C(F)(F)F (centres unmarked) [Example 103, 2-(3,6-Diazabicyclo[3.1.1]heptan-3-yl)-7-(thiazol-2-yl)-5-(1,1,1-trifluoro-2-methoxypropan-2-yl)benzo[d]oxazole] | < 100 nM
CC(O)C(F)(F)OC(c1ccc(-c2nccs2)c2oc(N3CC4CC(C3)N4)nc12)C(F)(F)F (centres unmarked) [Example 265, 1-(1-(2-(3,6-Diazabicyclo[3.1.1]heptan-3-yl)-7-(thiazol-2-yl)benzo[d]oxazol-4-yl)-2,2,2-trifluoroethoxy)-1,1-difluoropropan-2-ol] | < 100 nM
c1csc(-c2ccc(OC3CCOC3)c3nc(N4CC5CCC(C4)N5)oc23)n1 (centres unmarked) [Example 84, 2-(3,8-Diazabicyclo[3.2.1]octan-3-yl)-4-((tetrahydrofuran-3-yl)oxy)-7-(thiazol-2-yl)benzo[d]oxazole] | < 100 nM
OC(c1ccc(-c2nccs2)c2oc(N3CC4CC(C3)N4)nc12)C(F)F (centres unmarked) [Example 125, 1-(2-(3,6-Diazabicyclo[3.1.1]heptan-3-yl)-7-(thiazol-2-yl)benzo[d]oxazol-4-yl)-2,2-difluoroethan-1-ol] | < 100 nM
COC(C)(c1cc(-c2nccs2)c2oc(N3CC4CCCC(C3)N4)nc2c1)C(F)(F)F (centres unmarked) [Example 162] | < 100 nM
CC(=O)Nc1cc(-c2nccs2)c2oc(N3CC4CC(C3)N4)nc2c1 [Example 49, N-(2-(3,6-diazabicyclo[3.1.1]heptan-3-yl)-7-(thiazol-2-yl)benzo[d]oxazol-5-yl)acetamide] | 100 to 1000 nM

Compound | IC50
COC1(c2cc(-c3nccs3)c3oc(N4CC5CC(C4)N5)nc3c2OC(F)(F)F)CC1 [Example 283, 2-(3,6-Diazabicyclo[3.1.1]heptan-3-yl)-5-(1-methoxycyclopropyl)-7-(thiazol-2-yl)-4-(trifluoromethoxy)benzo[d]oxazole] | < 100 nM
COC(C)(C)c1cc(-c2cscn2)c2oc(N3CC4CC(C3)N4)nc2c1OC(F)(F)F [Example 287, 2-(3,6-Diazabicyclo[3.1.1]heptan-3-yl)-5-(2-methoxypropan-2-yl)-7-(thiazol-4-yl)-4-(trifluoromethoxy)benzo[d]oxazole] | < 100 nM
CC(C)c1cc(-c2nccs2)c2oc(N3CC4CCCC(C3)N4)nc2c1 [Example 24, 2-(3,9-Diazabicyclo[3.3.1]nonan-3-yl)-5-isopropyl-7-(thiazol-2-yl)benzo[d]oxazole] | < 100 nM
CC(C)(O)c1cc(-c2nccs2)c2oc(N3CC4CC(C3)N4)nc2c1 [Example 173, 2-(2-(3,6-Diazabicyclo[3.1.1]heptan-3-yl)-7-(thiazol-2-yl)benzo[d]oxazol-5-yl)propan-2-ol] | < 100 nM
CC(C)(O)c1cc(-c2nccs2)c2oc(N3CC4CCC(C3)N4)nc2c1C(F)(F)F [Example 177, 2-(2-(3,8-Diazabicyclo[3.2.1]octan-3-yl)-7-(thiazol-2-yl)-4-(trifluoromethyl)benzo[d]oxazol-5-yl)propan-2-ol] | < 100 nM
CC(O)c1cc(-c2nccs2)c2oc(N3CC4CC(C3)N4)nc2c1OC(F)(F)F (centres unmarked) [Example 272, 1-(2-(3,6-Diazabicyclo[3.1.1]heptan-3-yl)-7-(thiazol-2-yl)-4-(trifluoromethoxy)benzo[d]oxazol-5-yl)ethan-1-ol] | < 100 nM
CC(O)(c1cc(-c2nccs2)c2oc(N3CC4CC(C3)N4)nc2c1OC(F)(F)F)C(F)(F)F (centres unmarked) [Example 216, 2-(2-(3,6-Diazabicyclo[3.1.1]heptan-3-yl)-7-(thiazol-2-yl)-4-(trifluoromethoxy)benzo[d]oxazol-5-yl)-1,1,1-trifluoropropan-2-ol] | < 100 nM
OC(c1ccc(-c2nccs2)c2oc(N3CC4CCC(C3)N4)nc12)C(F)(F)F (centres unmarked) [Example 118, 1-(2-(3,8-Diazabicyclo[3.2.1]octan-3-yl)-7-(thiazol-2-yl)benzo[d]oxazol-4-yl)-2,2,2-trifluoroethan-1-ol] | < 100 nM
OC1CCC(Oc2ccc(-c3nccs3)c3oc(N4CC5CC(C4)N5)nc23)CC1 (centres unmarked) [Example 305, 4-((2-(3,6-Diazabicyclo[3.1.1]heptan-3-yl)-7-(thiazol-2-yl)benzo[d]oxazol-4-yl)oxy)cyclohexan-1-ol] | < 100 nM
CC(O)(c1cc(-c2nccs2)c2oc(N3CC4CCC(C3)N4)nc2c1OC(F)(F)F)C(F)(F)F (centres unmarked) [Example 217, 2-(2-(3,8-Diazabicyclo[3.2.1]octan-3-yl)-7-(thiazol-2-yl)-4-(trifluoromethoxy)benzo[d]oxazol-5-yl)-1,1,1-trifluoropropan-2-ol] | < 100 nM
CCOC(=O)c1cc(-c2nccs2)c2oc(N3CC4CC(C3)N4)nc2c1OC(F)(F)F [Example 187, Ethyl 2-(3,6-diazabicyclo[3.1.1]heptan-3-yl)-7-(thiazol-2-yl)-4-(trifluoromethoxy)benzo[d]oxazole-5-carboxylate] | < 100 nM
Clc1ccc(-c2nccs2)c2oc(N3CC4CCC(C3)N4)nc12 [Example 36, 2-(3,8-Diazabicyclo[3.2.1]octan-3-yl)-4-chloro-7-(thiazol-2-yl)benzo[d]oxazole] | < 100 nM
FC(F)(F)c1c(Cl)cc(-c2nccs2)c2oc(N3CC4COCC(C3)N4)nc12 [Example 19, 7-(5-Chloro-7-(thiazol-2-yl)-4-(trifluoromethyl)benzo[d]oxazol-2-yl)-3-oxa-7,9-diazabicyclo[3.3.1]nonane] | < 100 nM
CC(C)(O)c1cc(-c2cscn2)c2oc(N3CC4CCC(C3)N4)nc2c1OC(F)(F)F [Example 291, 2-(2-(3,8-Diazabicyclo[3.2.1]octan-3-yl)-7-(thiazol-4-yl)-4-(trifluoromethoxy)benzo[d]oxazol-5-yl)propan-2-ol] | < 100 nM
CC(C)(O)C(F)(F)Oc1ccc(-c2ncco2)c2oc(N3CC4CC(C3)N4)nc12 [Example 290, 1-((2-(3,6-Diazabicyclo[3.1.1]heptan-3-yl)-7-(oxazol-2-yl)benzo[d]oxazol-4-yl)oxy)-1,1-difluoro-2-methylpropan-2-ol] | < 100 nM
OC(c1ccc(-c2nccs2)c2oc(N3CC4CCC(C3)N4)nc12)C(F)F (centres unmarked) [Example 128, 1-(2-(3,8-Diazabicyclo[3.2.1]octan-3-yl)-7-(thiazol-2-yl)benzo[d]oxazol-4-yl)-2,2-difluoroethan-1-ol] | < 100 nM

Same assay, conditions: scintillation proximity assay; class symbols; read-out: PDE4 Inhibitory Activity

Compound | IC50
CN(C)S(=O)(=O)c1ccc(-c2nccs2)c2oc(N3CC4CC(C3)N4)nc12 [Example 388, 2-(3,6-diazabicyclo[3.1.1]heptan-3-yl)-N,N-dimethyl-7-(thiazol-2-yl)benzo [d]oxazole-4-sulfonamide] | < 100 nM
CC(O)c1cc(-c2nccs2)c2oc(N3CC4CCC(C3)N4O)nc2c1OC(F)(F)F (centres unmarked) [Example 383, 3-(5-(1-hydroxy-ethyl)-7-(thiazol-2-yl)-4-(trifluoro-methoxy)benzo [d]oxazol-2-yl)-3,8-diazabicyclo[3.2.1] octan-8-ol] | > 1000 nM
O=S(=O)(c1ccc(-c2nccs2)c2oc(N3CC4CC(C3)N4)nc12)N1CCCC1 [Example 390, 2-(3,6-diazabicyclo[3.1.1]heptan-3-yl)-4-(pyrrolidin-1-yl-sulfonyl)-7-(thiazol-2-yl)benzo [d]oxazole] | < 100 nM
